A value given as a limit tells only on which side of the number the result lay.

T1 sequence (P26663 1027-1657): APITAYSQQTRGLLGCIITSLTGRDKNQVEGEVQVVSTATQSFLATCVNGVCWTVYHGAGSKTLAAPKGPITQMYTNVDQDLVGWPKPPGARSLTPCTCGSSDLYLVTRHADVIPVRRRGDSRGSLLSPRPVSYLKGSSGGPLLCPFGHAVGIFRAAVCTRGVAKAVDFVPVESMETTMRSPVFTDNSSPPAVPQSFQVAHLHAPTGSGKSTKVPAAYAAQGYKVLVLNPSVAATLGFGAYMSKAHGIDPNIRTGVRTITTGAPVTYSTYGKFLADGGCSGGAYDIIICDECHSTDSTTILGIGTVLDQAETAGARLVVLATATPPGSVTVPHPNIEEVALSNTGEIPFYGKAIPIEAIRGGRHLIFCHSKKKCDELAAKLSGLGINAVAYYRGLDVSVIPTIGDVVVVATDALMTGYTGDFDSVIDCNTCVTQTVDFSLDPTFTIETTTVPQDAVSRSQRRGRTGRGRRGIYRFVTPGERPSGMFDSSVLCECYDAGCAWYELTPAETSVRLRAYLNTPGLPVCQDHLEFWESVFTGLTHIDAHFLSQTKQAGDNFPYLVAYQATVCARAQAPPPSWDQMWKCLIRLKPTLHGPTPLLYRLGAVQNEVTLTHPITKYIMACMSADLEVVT

The first experiment addresses T1, HCV NS3 helicase (Hepatitis C virus genotype 1b, UniProt P26663).
T1 construct: full-length NS3 (1-631), purified at Array BioPharma
Nature of the experiment: HCV Helicase Prompt FRET Assay (Example A). The format is biochemical. The following applies: HCV NS3 helicase; tables do not say whether Example A or Example B assay; read-out: IC50 Activity. Here is the method: Test compounds were diluted to 2.5 mM by adding 6 uL of a 10 mM solution of the compound to 18 uL of DMSO in a 384-well Costar polypropylene plate. Serial dilutions (2.5×) were performed in the plate using DMSO as the diluent. 1 ul of solution was transferred from each well to a new 384-well Costar polypropylene plate.
A 2× mixture was prepared containing 100 nM helicase substrate, 500 nM helicase capture strand (CS), and 600 μM ATP by diluting stock solutions with assay buffer consisting of 25 mM MOPS, pH 7.0, and 1.5 mM MgCl2, 0.005% (v/v) Triton X-100. Stock helicase substrate was prepared by annealing a FAM-labeled oligonucleotide to a BHQ-1 labeled oligonucleotide, which were both custom synthesized and HPLC-purified at Biosearch Technologies. The FAM-labeled and BHQ-labeled oligonucleotide had the following sequences:
The helicase capture strand was custom synthesized and purified at Integrated DNA Technologies. The helicase capture strand had the following sequence:
The ATP solution was prepared in MilliQ water, pH adjusted to approximately 7 with NaOH. ATP powder was obtained from Sigma (A-7699). The concentration was determined via A260 (ext. coeff=15,400 M^−1cm^−1).
11.5 μL of assay buffer was added to all wells of the plate containing luL of test compound. 5 μL of the Compound/assay buffer mixture was added to a black polystyrene 384-well Proxiplate. A 4× Enzyme solution was prepared by diluting enzyme stock containing full-length NS3 (1-631), purified at Array BioPharma, with assay buffer. 5 μL of the 4× Enzyme solution was added to the Proxiplate and incubated for 5 minutes (for control wells lacking enzyme, assay buffer was used instead). 10 μL of 2× substrate/CS/ATP mixture was then added to all wells of Proxiplate. The final assay conditions included 50 nM Substrate, 250 nM Capture Strand, 300 μM ATP, 5 or 6 nM Enzyme, and 2% (v/v) DMSO. The reaction proceeded for 70 cycles (˜30 min.) on an Envision at room temperature. The plate was read using the Envision (top mirror=FITC; Excitation filter=FITC 485; Emission filter=FITC 535). The fluorescence intensity was recorded for a total of 30 minutes. The initial rates of the reactions was calculated and used to calculate IC50 values. The IC50 curve fitting was performed using either a 4-parameter or 5-parameter logistic equation.
In general, IC50 refers to the midpoint of a concentration-inhibition curve. Consider `COc1cccc(Oc2cccc(Cn3cc(CC(=O)O)c4ccccc43)c2)c1` [Example 479], for which the IC50 was in the range of 10 to 50 µM.
On to `CC(C)c1ccc(Cn2c(C(=O)NC3CCNCC3)c(CC(=O)O)c3cc(Br)ccc32)cc1` [Example 438], for which the IC50 is 10 to 50 µM.
As for `O=C(O)Cc1c(C(=O)c2cccc(-c3ccnc(Cl)c3)c2)[nH]c2ccccc12` [Example 238], the IC50 lay in the range of 10 to 50 µM.
As for `CSc1ccccc1-c1ccc(Cc2[nH]c3ccccc3c2CC(=O)O)cc1` [Example 288], the IC50 is < 10 µM.
The same measure, in the same setting: in the case of `O=C(Cn1cc(Cc2nnn[nH]2)c2ccccc21)N1CCN(Cc2ccccc2)CC1` [Example 205] it was 10 to 50 µM; in that of `Oc1nnc(Cc2cn(Cc3csc4ccc(Cl)cc34)c3ccccc23)[nH]1` [Example 212], 10 to 50 µM; in that of `Cc1ccc(-c2ccc(Cc3[nH]c4ccccc4c3CC(=O)O)cc2)cc1Cl` [Example 291], < 10 µM.
The same measure, in the same setting: in the case of `O=C(Cc1cn(Cc2cccc(OCc3ccccc3)c2)c2ccc(OCc3ccccc3)cc12)N1CCCC1` [Example 189] it was 10 to 50 µM.
Same read-out and setting: with `Cc1cc([N+](=O)[O-])ccc1-n1cc(I)c2cc(Br)cnc21` [Example 320] the figure was > 50 µM; with `O=P(O)(O)Cc1cn(-c2ccc(S(=O)(=O)CCO)cc2)c2ccc(Br)cc12` [Example 315], 10 to 50 µM; with `O=C(O)Cc1cn(Cc2cccc(Oc3cccc(F)c3)c2)c2ccccc12` [Example 473], < 10 µM.
Regarding `O=C(O)Cc1cn(-c2ccc3ccccc3c2)c2ccccc12` [Example 143], the IC50 was in the range of 10 to 50 µM.
Turning to `CCOC(=O)Cc1cn(Cc2ccc(Oc3cccc(OCC)c3)cc2)c2cc(-c3cccc(OC(C)=O)c3)ccc12` [Example 604], the IC50 was > 50 µM.
The same measure, in the same setting: with `Cc1cc([N+](=O)[O-])ccc1-n1cc(CP(=O)(O)O)c2cc(Br)ccc21` [Example 313] the figure was 10 to 50 µM; with `O=C(O)Cc1cn(-c2ccc(-c3cccc(C(F)(F)F)c3)cc2)c2ccccc12` [Example 152], < 10 µM.
Same read-out and setting: in the case of `O=C(O)Cc1c(Cc2cccc(-c3cccc(Cl)c3Cl)c2)[nH]c2ccccc12` [Example 303] it was < 10 µM; in that of `O=C(O)Cc1cn(Cc2csc3ccc(Cl)cc23)c2ccccc12` [Example 121], 10 to 50 µM; in that of `COc1ccc(N(C)c2cccc(Cn3cc(CC(=O)O)c4ccccc43)c2)c(OC)c1` [Example 542], < 10 µM.
The same measure, in the same setting: in the case of `Cn1c(C(=O)Cc2ccc(-c3ccccc3)cc2)c(CC(=O)O)c2ccccc21` [Example 250] it was 10 to 50 µM; in that of `Cc1ccc(-c2ccc(C(=O)c3[nH]c4ccccc4c3CC(=O)O)cc2)cc1Cl` [Example 267], < 10 µM; in that of `O=C(O)Cc1cn(Cc2ccc(Oc3ccc(Cl)c(Cl)c3)cc2)c2ccccc12` [Example 507], < 10 µM.
`CSc1cccc(-c2ccc(-n3cc(CC(=O)O)c4ccccc43)cc2)c1` [Example 155]: the IC50 is < 10 µM.
The same measure, in the same setting: with `CC(C)N(Cc1ccccc1)c1ccc(-n2cc(CC(=O)O)c3ccccc32)cc1` [Example 167] the figure was < 10 µM.
On the same count and under the same terms, in the case of `O=C(O)Cc1cn(Cc2ccc(-c3ccccc3)cc2)c2ccc(Br)cc12` [Example 109] it was < 10 µM; in that of `O=C(O)Cc1cn(Cc2cc(-c3ccccc3)no2)c2ccc(Br)cc12` [Example 138], 10 to 50 µM.
The same measure, in the same setting: in the case of `O=C(O)Cc1c(Cc2csc3ccc(Cl)cc23)[nH]c2cc(OCc3ccccc3)ccc12` [Example 347] it was < 10 µM; in that of `Cc1cc([N+](=O)[O-])ccc1-n1c(Cc2csc3ccc(Cl)cc23)c(CC(=O)O)c2ccc(OCc3ccccc3)cc21` [Example 371], < 10 µM; in that of `COc1ccc2c(c1)c(CC(=O)O)cn2Cc1cccc(OCc2ccccc2)c1` [Example 107], 10 to 50 µM.
Consider `O=C(O)Cc1cn(Cc2csc3ccc(Cl)cc23)c2cc(-c3ccnc(Cl)c3)ccc12` [Example 740], for which the IC50 is 10 to 50 µM.
The same measure, in the same setting: in the case of `Clc1ccc2scc(Cn3c(-c4ccccc4)c(Cc4nnn[nH]4)c4ccccc43)c2c1` [Example 204] it was < 10 µM.
Same read-out and setting: with `O=C(O)Cc1c(C(=O)c2cccc(-c3ccccc3Cl)c2)[nH]c2ccccc12` [Example 234] the figure was 10 to 50 µM; with `CCN(c1cccc(Cn2cc(CC(=O)O)c3ccccc32)c1)c1ccccc1Cl` [Example 552], < 10 µM.
Still for that read-out and setting: in the case of `O=C(O)Cc1cn(Cc2ccc(Oc3cc(C(F)(F)F)cc(C(F)(F)F)c3)cc2)c2ccccc12` [Example 512] it was < 10 µM.
As to `CC(C)(c1nnn[nH]1)c1cn(Cc2csc3ccc(Cl)cc23)c2ccccc12` [Example 216], the IC50 lay within 10 to 50 µM.
As to `O=C(NCc1ccc2c(c1)c(Cc1nn[nH]n1)cn2Cc1csc2ccc(Cl)cc12)OCc1ccccc1` [Example 207], the IC50 was < 10 µM.

Staying with this experiment, now noted: Table 21, compounds made using Scheme 28; read-out: IC50 Activity.
Regarding `CN(c1ccc(Cn2cc(CC(=O)O)c3ccccc32)cc1)c1cc(F)ccc1F` [Example 570], the 50% inhibitory concentration (IC50) is < 10 µM.
As for `CN(c1ccc(Cl)cc1)c1ccc(Cn2cc(CC(=O)O)c3ccccc32)cc1` [Example 561], the half-maximal inhibitory concentration (IC50) is < 10 µM.
On the same count and under the same terms, in the case of `CN(c1ccc(Cn2cc(CC(=O)O)c3ccccc32)cc1)c1cccc(C(F)(F)F)c1` [Example 566] it was < 10 µM.

Staying with this experiment, now noted: Table 23, compounds made using Scheme 30; read-out: IC50 Activity.
As for `O=C(O)Cc1cn(Cc2ccc(Oc3c(C(F)(F)F)cccc3C(F)(F)F)cc2)c2ccccc12` [Example 592], the IC50 was 10 to 50 µM.
The same measure, in the same setting: in the case of `O=C(O)Cc1cn(Cc2cccc(Oc3ccc(C(F)(F)F)cc3C(F)(F)F)c2)c2ccccc12` [Example 597] it was < 10 µM.

Still in this experiment, the particulars now being: Table 29, compounds made using Scheme 36; read-out: IC50 Activity.
`Nc1ncc(C(=O)O)c(-c2ccc3c(CC(=O)O)cn(Cc4csc5ccc(Cl)cc45)c3c2)n1` [Example 621]: the IC50 is > 50 µM.

The experiment is the same for the next values; noted with them: Table 31, compounds made using Schemes 38-45; read-out: IC50 Activity.
For the molecule `CCNc1nc(NCC)nc(-c2ccc3c(CC(=O)O)cn(Cc4csc5ccc(Cl)cc45)c3c2)n1` [Example 632], the IC50 was < 10 µM.
Same read-out and setting: in the case of `Nc1nc(-c2ccc3c(CC(=O)O)cn(Cc4csc5ccc(Cl)cc45)c3c2)c2nc[nH]c2n1` [Example 639] it was 10 to 50 µM; in that of `CC(=O)Nc1cc(NC(C)=O)cc(-c2ccc3c(CC(=O)O)cn(Cc4csc5ccc(Cl)cc45)c3c2)c1` [Example 648], < 10 µM.

The same experiment, now with this note: Table 34, compounds made using Schemes 51-52; read-out: IC50 Activity.
For the molecule `Cc1cc([N+](=O)[O-])ccc1-n1cc(C(NC(=O)C2CCCN2C(=O)OC(C)(C)C)C(=O)O)c2ccccc21` (stereo not drawn) [Example 671], the IC50 was 10 to 50 µM.
Still for that read-out and setting: in the case of `Nc1cc(N)cc(-c2ccc3c(CC(=O)NO)cn(Cc4csc5ccc(Cl)cc45)c3c2)c1` [Example 692] it was 10 to 50 µM.
Same read-out and setting: in the case of `OCCc1cn(Cc2csc3ccc(Cl)cc23)c2cc(Br)ccc12` [Example 694] it was > 50 µM.

The same experiment, now with this note: Table 35, compounds made using Scheme 53; read-out: IC50 Activity.
Consider `Nc1cc(N)cc(-c2ccc3c(CC(=O)O)cn(Cc4csc5ccc(N)cc45)c3c2)c1` [Example 702], for which the IC50 was 10 to 50 µM.

The experiment is the same for the next values; noted with them: Table 36, compounds made using Scheme 54; read-out: IC50 Activity.
In the case of `CCc1sc2ccc(Cl)cc2c1Cn1cc(CC(=O)O)c2ccc(-c3cc(N)cc(N)c3)cc21` [Example 721], the IC50 was < 10 µM.
On the same count and under the same terms, in the case of `Nc1cc(N)cc(-c2ccc3c(CC(=O)O)cn(Cc4csc5cc(Cl)cc(Cl)c45)c3c2)c1` [Example 787] it was 10 to 50 µM; in that of `CCOC(=O)Cc1cn(Cc2c(-c3ccccc3)sc3ccccc23)c2cc(-c3cc(N)cc(N)c3)ccc12` [Example 712], < 10 µM.
Same read-out and setting: with `Nc1cc(N)cc(-c2ccc3c(CC(=O)O)cn(Cc4nc5ccccc5s4)c3c2)c1` [Example 735] the figure was > 50 µM; with `Nc1cc(N)cc(-c2ccc3c(CC(=O)O)cn(Cc4csc5c(Cl)c(Cl)ccc45)c3c2)c1` [Example 724], 10 to 50 µM.

Staying with this experiment, now noted: Table 37, compounds made using Scheme 55; read-out: IC50 Activity.
Take `O=C(O)Cc1cn(Cc2csc3ccc(Cl)cc23)c2cc(-c3ccccc3F)ccc12` [Example 758]: the IC50 was > 50 µM.
On the same count and under the same terms, in the case of `NC(=O)Nc1cccc(-c2ccc3c(CC(=O)O)cn(Cc4csc5ccc(Cl)cc45)c3c2)c1` [Example 767] it was 10 to 50 µM.

The same experiment, now with this note: Table 38, compounds made using Scheme 56, Scheme 57 and Scheme 61; read-out: IC50 Activity.
As to `CN(c1cc(Cl)cc2c(Cn3cc(CC(=O)O)c4ccc(-c5cc(N)cc(N)c5)cc43)csc12)S(C)(=O)=O` [Example 730], the IC50 was in the range of 10 to 50 µM.
On to `CC(C)(C)OC(=O)N(c1cc(Cl)cc2c(Cn3cc(CC(=O)O)c4ccc(Br)cc43)csc12)C1CC1` [Example 773], for which the IC50 is > 50 µM.

The values are drawn from patent US20090047246A1, “NOVEL INHIBITORS OF HEPATITIS C VIRUS REPLICATION” (InterMune, Inc., priority 2007, published 2009).
